According to patent US9815863B2, “Hydrogen bond forming fluoro ketolides for treating diseases” (priority 2010, dated 2017):

Legend:
[1] = system: E. coli 70S ribosomes; assay: Saturation (direct) binding of radiolabeled drug to E. coli ribosomes, spin-column
Procedure: (§1) Ribosomes were prepared from E. coli, strain MRE 600, S. aureus strain ATCC 29212, or S. aureus strain N315 by standard protocols (Spedding™, G. 1990. Isolation and analysis of ribosomes from prokaryotes, eukaryotes, and organelles, p. 1-29. In G. Spedding (ed.), Ribosomes and protein synthesis, a practical approach. Oxford University Press, Oxford, United Kingdom; Adams, P. D., P. V. Afonine, G. Bunkoczi, V. B. Chen, I. W. Davis, N. Echols, J. J. Headd, L. W. Hung, G. J. Kapral, R. W. Grosse-Kunstleve, A. J. McCoy, N. W. Moriarty, R. Oeffner, R. J. Read, D. C. Richardson, J. S. Richardson, T. C. Terwilliger, and P. H. Zwart. 2010. PHENIX: a comprehensive Python-based system for macromolecular structure solution. Acta Crystallogr. D. Biol. Crystallogr. 66:213-221).
(§2) Competition binding studies. […]
(§3) Direct antibiotic binding experiments were done by incubating ribosomes at a 100 nM concentration with varying concentrations of radiolabeled drug in a total volume of 160 μL in buffer A (20 mM Tris-HCl [pH 7.5], 10 mM MgCl2, 150 mM NH4Cl, 6 mM 2-mercaptoethanol) at 37° C. for 15 min, then at 20° C. for 10 min. […] Radioactivity was measured in a scintillation counter and used to calculate the amount of the radiolabeled drug bound to ribosomes.

[2] = target: S. aureus 70S ribosomes; assay: Saturation (direct) binding of radiolabeled drug to S. aureus wild-type ribosomes, spin-column
Procedure: as §1, §2, §3

[3] = system: E. coli ribosomes (23S rRNA); assay: RNA footprinting (ribosome chemical probing), wild-type E. coli ribosomes; type: binding; settings: E. coli ribosomes, 100 μM antibiotic
Procedure: (§4) Ribosome chemical probing. rRNA probing was done following standard protocols (Merryman, C., and H. F. Noller. 1998. Footprinting and modification-interference analysis of binding sites on RNA, p. 237-253. In C. W. J. Smith (ed.), RNA:Protein Interactions, A Practical Approach. Oxford University Press, Oxford), with minor modifications. Briefly, 200 nM ribosomes were incubated with 100 μM antibiotic in 50 μL of buffer B (80 mM HEPES-KOH [pH 7.8], 20 mM MgCl2, 100 mM NH4Cl, 1.5 mM dithiothreitol) for 10 min at 37° C., followed by 10 min at 20° C. Modifying reagents (dimethyl sulfate [DMS], kethoxal, or 1-cyclohexyl-3-(2-morpholinoethyl)carbodiimide metho p-toluene sulfonate [CMCT]) were added and the modification reaction was carried out for 10 min at 37° C. After quenching the reaction and ethanol precipitation, rRNA was extracted and the distribution of modified nucleotides was assessed by primer extension.
(§5) Interactions of CEM-101 with wild-type E. coli and S. aureus ribosomes in solution. […] 1987. Chloramphenicol, erythromycin, carbomycin and vernamycin B protect overlapping sites in the peptidyl transferase region of 23S ribosomal RNA. Biochimie 69:879-884). Also included in this study was a C3-cladinose cousin of CEM-101, CEM-103, which lacks the C2-linked fluorine atom.

[4] = system: S. aureus ribosomes (23S rRNA); assay: RNA footprinting (ribosome chemical probing), wild-type S. aureus ribosomes; type: binding; settings: S. aureus ribosomes, 100 μM antibiotic
Procedure: as §4, §5

[5] = system: 2058-dimethylated ribosomes isolated from the S. aureus N315 strain; assay: RNA footprinting of A2058-dimethylated (Erm-modified) ribosomes from S. aureus N315; type: binding; settings: S. aureus N315 ribosomes dimethylated at A2058, drugs at 100 μM
Procedure: as §4
Interaction of CEM-101 with S. aureus ribosomes dimethylated at A2058 by Erm-methyltransferase. Erm-methyltransferase modifies A2058 in 23S rRNA by consecutively adding two methyl groups to the exocyclic amino group of the adenine base. Such modification completely blocks binding of erythromycin and similar macrolides, whereas its effect on binding of ketolides is less clear (Douthwaite, S., L. H. Hansen, and P. Mauvais. 2000. Macrolide-ketolide inhibition of MLS-resistant ribosomes is improved by alternative drug interaction with domain R of 23S rRNA. Mol. Microbiol. 36:183-193; Liu, M., and S. Douthwaite. 2002. Activity of the ketolide telithromycin is refractory to Erm monomethylation of bacterial rRNA. Antimicrob. Agents Chemother. 46:1629-1633). Therefore, interaction of CEM-101 with the ribosomes isolated from a clinical S. aureus strain N315, which carries five chromosomal copies of constitutively expressed ermA gene present in the Tn554 transposon (Kuroda, M., T. Ohta, I. Uchiyama, T. Baba, H. Yuzawa, I. Kobayashi, L. Cui, A. Oguchi, K. Aoki, Y. Nagai, J. Lian, T. Ito, M. Kanamori, H. Matsumaru, A. Maruyama, H. Murakami, A. Hosoyama, Y. Mizutani-Ui, N. K. Takahashi, T. Sawano, R. Inoue, C. Kaito, K. Sekimizu, H. Hirakawa, S. Kuhara, S. Goto, J. Yabuzaki, M. Kanehisa, A. Yamashita, K. Oshima, K. Furuya, C. Yoshino, T. Shiba, M. Hattori, N. Ogasawara, H. Hayashi, and K. Hiramatsu. 2001. Whole genome sequencing of meticillin-resistant Staphylococcus aureacs. Lancet 357:1225-1240) was investigated.
Footprinting analysis was used to test interactions of ketolides (CEM-101 and telithromycin) and cladinose-containing macrolides (CEM-103 and erythromycin) with the 2058-dimethylated ribosomes isolated from the S. aureus N315 strain. Ribosomes were incubated with the drugs (present at 100 μM concentration) and probed by DMS modification. Because dimethylated A2058 blocks progression of reverse transcriptase along the RNA template, a strong reverse transcriptase stop is observed at A2058 on the primer extension gel (Vester, B., and S. Douthwaite. 1994. Domain V of 23S rRNA contains all the structural elements necessary for recognition by the ErmE methyltransferase. J. Bacteriol. 176:6999-7004; Zhong, P., Z. Cao, R. Hammond, Y. Chen, J. Beyer, V. D. Shortridge, L. Y. Phan, S. Pratt, J. Capobianco, K. A. Reich, R. K. Flamm, Y. S. Or, and L. Katz. 1999. Induction of ribosome methylation in MLS-resistant Streptococcus pneumoniae by macrolides and ketolides. Microb. Drug Resist. 5:183-188). Therefore, it is impossible to use footprinting to evaluate interactions of macrolides with this position in the S. aureus N315 ribosomes. […]

[6] = system: ribosomes isolated from the S. aureus N315 strain; assay: Binding of [14C]erythromycin to ribosomes from S. aureus N315; settings: ribosomes from S. aureus N315, dimethylated at A2058
Procedure: Competition binding studies. Binding of erythromycin to E. coli and S. aureus ribosomes and competition experiments were done by size-exclusion chromatography using Bio-Gel P30 spin columns as described in Xiong, L., Y. Korkhin, and A. S. Mankin. 2005. Binding site of the bridged macrolides in the Escherichia coli ribosome. Antimicrob. Agents Chemother. 49:281-288.
Direct antibiotic binding experiments were done by incubating ribosomes at a 100 nM concentration with varying concentrations of radiolabeled drug in a total volume of 160 μL in buffer A (20 mM Tris-HCl [pH 7.5], 10 mM MgCl2, 150 mM NH4Cl, 6 mM 2-mercaptoethanol) at 37° C. for 15 min, then at 20° C. for 10 min. The reactions were loaded onto the spin columns and centrifuged in a swinging-bucket microcentrifuge rotor for 1 min at 1,000 g at room temperature. The flow-through solution was collected; 130 μL was mixed with 5 mL of the scintillation cocktail. Radioactivity was measured in a scintillation counter and used to calculate the amount of the radiolabeled drug bound to ribosomes.
Interaction of CEM-101 with S. aureus ribosomes dimethylated at A2058 by Erm-methyltransferase. Erm-methyltransferase modifies A2058 in 23S rRNA by consecutively adding two methyl groups to the exocyclic amino group of the adenine base. […]

[7] = target: ribosomes; settings: literature values for erythromycin binding; read-out: Kd, previously published; cited from earlier work

For `CC[C@H]1OC(=O)[C@H](C)[C@@H](O[C@H]2C[C@@](C)(OC)[C@@H](O)[C@H](C)O2)[C@H](C)[C@@H](O[C@@H]2O[C@H](C)C[C@H](N(C)C)[C@H]2O)[C@](C)(O)C[C@@H](C)C(=O)[C@H](C)[C@@H](O)[C@]1(C)O` [erythromycin], the Kd [1] was 66 ± 11 nM, the Kd [2] was 11 ± 1 nM and the “Protection of A752 from DMS modification” value [3] was “fails to protect”. The “Protection of A752 from DMS modification” value [4] was “fails to protect”, the “Protection of A2059 from DMS modification (binding to Erm-modified ribosome)” value [5] was “not” and the “Protection of G2505 from kethoxal modification” value [5] was “did not protect”. The “Protection of U2609 from modification with CMCT” value [5] was “did not protect”, the Binding to ribosomes [6] was “lack of binding” and the Kd [7] was 10 to 100 nM.
